US20090036485A1, “Quinoline derivatives” (priority 2004, published 2009)

Legend:
PDGFRα tyrosine kinase = molecular target: T1, PDGFRα tyrosine kinase (Homo sapiens, UniProt P16234); test: In vitro enzyme assay (ELISA), PDGFRα tyrosine kinase; assay type: biochemical; settings: Test (a); ATP 14 μM; read-out: IC50 versus PDGFRα tyrosine kinase
T1 construct: PDGFRα, PDGFRβ and KDR receptor cytoplasmic domains, obtained by expression of recombinant protein in insect cells; purchased Upstate Biotechnology Inc. 14-467; host or cells: Sf9 insect cells
Experimental: The ability of test compounds to inhibit the phosphorylation of a tyrosine containing polypeptide substrate by the tyrosine kinase enzymes PDGFRα, PDGFRβ and KDR was assessed using conventional ELISA assays.
DNA encoding the PDGFRα, PDGFRβ or KDR receptor cytoplasmic domains may be obtained by total gene synthesis (International Biotechnology Lab., 1987, 5(3), 19-25) or by cloning. The DNA fragments may be expressed in a suitable expression system to obtain polypeptide with tyrosine kinase activity. For example, PDGFRα, PDGFRβ and KDR receptor cytoplasmic domains, obtained by expression of recombinant protein in insect cells, can be shown to display intrinsic tyrosine kinase activity. In the case of the VEGF receptor KDR (Genbank Accession No. L04947), a DNA fragment encoding most of the cytoplasmic domain, commencing with methionine 806 and including the termination codon may be cloned into a baculovirus transplacement vector [for example pAcYM1 (see The Baculovirus Expression System: A Laboratory Guide, L. A. King and R. D. Possee, Chapman and Hall, 1992) or pAc360 or pBlueBacHis (available from Invitrogen Corporation)]. This recombinant construct may be co-transfected into insect cells [for example Spodoptera frugiperda 21(Sf21) or Spodoptera frugiperda 9(Sf9)] with viral DNA (for example Pharmingen BaculoGold) to prepare recombinant baculovirus. […]

PDGFRβ tyrosine kinase = molecular target: T2, PDGFRβ tyrosine kinase (Homo sapiens, UniProt P09619); test: In vitro enzyme assay (ELISA), PDGFRβ tyrosine kinase; assay type: biochemical
T2 construct: PDGFRα, PDGFRβ and KDR receptor cytoplasmic domains, obtained by expression of recombinant protein in insect cells; purchased Upstate Biotechnology Inc. 14-463; host or cells: Sf9 insect cells
Experimental: (§1) The excess of substrate solution was discarded and the wells were washed in turn with PBS containing 0.05% v/v Tween 20 (PBST; 300 μl/well) and twice with Hepes pH7.4 buffer (50 mM, 300 μl/well) before being blotted dry.
Aliquots (25 μl) of each dilution of test compound were transferred to wells in the washed assay plates. “Maximum” control wells contained diluted DMSO instead of compound. Aliquots (25 μl) of an aqueous manganese chloride solution (40 mM) containing adenosine-5′-triphosphate (ATP) was added to all test wells except the “blank” control wells which contained magnesium chloride without ATP.
Each kinase enzyme was diluted immediately prior to use with an enzyme diluent comprising 100 mM Hepes pH7.4 buffer, 0.1 mM sodium orthovanadate, 0.1% Triton X-100 and 0.2 mM dithiothreitol. Aliquots (50 μl) of freshly diluted enzyme were added to each well and the plates were agitated at ambient temperature for 20 minutes. […] The plates were agitated at ambient temperature for about 20 minutes until the optical density value of the “maximum” control wells, as measured at 405 nm using a plate reading spectrophotometer, was approximately 1.0.

KDR tyrosine kinase = molecular target: T3, KDR tyrosine kinase (Homo sapiens, UniProt P35968); test: In vitro enzyme assay (ELISA), KDR tyrosine kinase; assay type: biochemical; settings: Test (a); ATP 8 μM; read-out: IC50 versus KDR tyrosine kinase
T3 construct: encoding most of the cytoplasmic domain, commencing with methionine 806 and including the termination codon; made in house; host or cells: Sf9 insect cells (baculovirus)
Experimental: For expression, Sf9 cells were infected with plaque-pure KDR recombinant virus and harvested 48 hours later. […] The suspension was centrifuged for 10 minutes at 13,000 rpm at 4° C. The supernatant (stock enzyme solution) was removed and stored in aliquots at −70° C.
as §1
Aliquots (25 μl) of each dilution of test compound were transferred to wells in the washed assay plates. “Maximum” control wells contained diluted DMSO instead of compound. […]
Each kinase enzyme was diluted immediately prior to use with an enzyme diluent comprising 100 mM Hepes pH7.4 buffer, 0.1 mM sodium orthovanadate, 0.1% Triton X-100 and 0.2 mM dithiothreitol. […] The plates were agitated at ambient temperature for about 20 minutes until the optical density value of the “maximum” control wells, as measured at 405 nm using a plate reading spectrophotometer, was approximately 1.0.

phospho-Tyr751 PDGFRβ = molecular target: T4, phospho-Tyr751 PDGFRβ (Homo sapiens, UniProt P09619); test: In vitro phospho-Tyr751 PDGFRβ ELISA assay in MG63 osteosarcoma cells; assay type: cell-based; settings: Test (b); MG63 cells stimulated with PDGFBB; read-out: IC50 versus phospho-Tyr751 PDGFRβ
T4 construct: phosphorylation of PDGFR expressed on MG63 osteosarcoma cells; endogenous in cells; host or cells: MG63 osteosarcoma cells
Experimental: This assay uses a conventional ELISA method to determine the ability of test compounds to inhibit phosphorylation of tyrosine in PDGFRβ.
The cells were incubated overnight at 37° C. with 7.5% CO2 to allow the cells to adhere to the wells.
The cells were incubated for 90 minutes at 37° C. with 7.5% CO2.
The resultant cells were stimulated with PDGFBB using the following procedure. […] The cells were incubated at 37° C. with 7.5% CO2 for 5 minutes. […] The resultant tissue culture plates were shaken for 5 minutes at ambient temperature to ensure full lysis and then frozen at −20° C. until required.
The wells were washed 5 times (1 minute soak each time) with 300 μl per well of PBST. The wells were treated with 50 μl of 3% BSA in PBST at ambient temperature for 1 hour and subsequently washed twice with 300 μl per well of PBST.
The tissue culture plates with frozen cell lysate were allowed to warm to 0° C. […] Aliquots (50 μl) of chemiluminescent substrate solution were added to each of the wells, the plates were agitated for 2 minutes and luminescence was read on a SpectraFluor Plus plate reader (Tecan UK Ltd., Reading, Berkshire, UK). Analysis for each of the compounds was completed by determining a ratio of the ‘phospho antibody’ plate reading to the ‘total antibody’ plate reading for each test sample and these ratios were plotted to determine the IC50 value of each test compound.

T3 sequence (P35968 786-1356 limits assumed): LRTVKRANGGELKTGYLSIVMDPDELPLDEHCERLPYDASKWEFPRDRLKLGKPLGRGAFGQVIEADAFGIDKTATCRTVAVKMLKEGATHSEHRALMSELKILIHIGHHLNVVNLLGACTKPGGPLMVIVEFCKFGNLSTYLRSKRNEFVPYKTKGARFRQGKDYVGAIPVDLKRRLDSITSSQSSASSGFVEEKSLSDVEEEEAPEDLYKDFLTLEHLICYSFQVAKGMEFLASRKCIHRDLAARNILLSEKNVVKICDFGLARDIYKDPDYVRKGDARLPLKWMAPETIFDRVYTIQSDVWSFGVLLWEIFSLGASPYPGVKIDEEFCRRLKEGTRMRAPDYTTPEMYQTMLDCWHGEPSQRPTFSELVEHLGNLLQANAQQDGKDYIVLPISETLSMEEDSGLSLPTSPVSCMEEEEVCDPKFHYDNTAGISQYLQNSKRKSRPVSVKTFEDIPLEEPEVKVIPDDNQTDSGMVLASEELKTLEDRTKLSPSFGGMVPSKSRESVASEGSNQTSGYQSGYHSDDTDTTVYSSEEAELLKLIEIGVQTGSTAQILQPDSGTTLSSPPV
T4 sequence (P09619 33-1106): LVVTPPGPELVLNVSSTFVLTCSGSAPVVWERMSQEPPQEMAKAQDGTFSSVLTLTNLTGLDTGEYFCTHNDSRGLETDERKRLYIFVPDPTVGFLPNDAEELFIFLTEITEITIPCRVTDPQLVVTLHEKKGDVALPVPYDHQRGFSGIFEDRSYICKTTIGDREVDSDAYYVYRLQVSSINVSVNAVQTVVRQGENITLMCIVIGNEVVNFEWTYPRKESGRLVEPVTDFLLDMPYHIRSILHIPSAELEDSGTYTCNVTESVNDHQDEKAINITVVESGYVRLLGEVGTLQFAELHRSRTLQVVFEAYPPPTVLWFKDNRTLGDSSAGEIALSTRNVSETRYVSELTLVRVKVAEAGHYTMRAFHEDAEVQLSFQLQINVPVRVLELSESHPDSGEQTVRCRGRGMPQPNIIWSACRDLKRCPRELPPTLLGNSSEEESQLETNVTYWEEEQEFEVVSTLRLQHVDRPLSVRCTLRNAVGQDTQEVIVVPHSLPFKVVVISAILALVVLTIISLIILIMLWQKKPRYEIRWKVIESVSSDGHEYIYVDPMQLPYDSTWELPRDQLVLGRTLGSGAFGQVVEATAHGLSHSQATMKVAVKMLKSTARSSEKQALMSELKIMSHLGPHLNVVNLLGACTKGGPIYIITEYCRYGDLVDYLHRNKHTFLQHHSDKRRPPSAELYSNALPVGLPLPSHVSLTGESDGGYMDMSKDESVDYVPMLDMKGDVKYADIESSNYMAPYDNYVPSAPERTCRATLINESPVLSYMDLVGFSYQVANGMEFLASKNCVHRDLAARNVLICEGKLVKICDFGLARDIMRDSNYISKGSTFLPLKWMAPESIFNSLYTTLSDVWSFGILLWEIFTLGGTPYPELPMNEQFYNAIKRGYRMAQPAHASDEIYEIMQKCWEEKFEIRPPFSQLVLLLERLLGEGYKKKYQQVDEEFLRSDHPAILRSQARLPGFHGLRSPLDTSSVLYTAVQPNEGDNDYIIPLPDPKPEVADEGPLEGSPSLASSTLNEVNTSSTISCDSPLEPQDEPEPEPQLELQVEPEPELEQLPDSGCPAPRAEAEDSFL
T2 sequence (P09619 554-1106 limits assumed): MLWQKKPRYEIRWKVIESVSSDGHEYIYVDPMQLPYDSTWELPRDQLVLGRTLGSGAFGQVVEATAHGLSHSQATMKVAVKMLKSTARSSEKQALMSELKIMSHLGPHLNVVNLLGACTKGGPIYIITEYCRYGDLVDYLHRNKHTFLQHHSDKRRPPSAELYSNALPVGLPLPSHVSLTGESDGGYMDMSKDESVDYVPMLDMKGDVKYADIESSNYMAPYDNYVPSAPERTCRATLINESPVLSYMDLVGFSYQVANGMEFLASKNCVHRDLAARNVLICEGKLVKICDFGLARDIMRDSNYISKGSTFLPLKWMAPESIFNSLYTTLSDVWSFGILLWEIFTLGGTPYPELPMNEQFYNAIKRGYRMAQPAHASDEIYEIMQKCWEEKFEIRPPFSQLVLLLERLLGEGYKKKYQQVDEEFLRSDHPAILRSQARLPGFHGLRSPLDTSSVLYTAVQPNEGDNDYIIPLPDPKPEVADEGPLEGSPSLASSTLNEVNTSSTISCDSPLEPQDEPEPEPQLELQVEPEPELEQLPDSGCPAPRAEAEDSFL
T1 sequence (P16234 550-1089 limits assumed): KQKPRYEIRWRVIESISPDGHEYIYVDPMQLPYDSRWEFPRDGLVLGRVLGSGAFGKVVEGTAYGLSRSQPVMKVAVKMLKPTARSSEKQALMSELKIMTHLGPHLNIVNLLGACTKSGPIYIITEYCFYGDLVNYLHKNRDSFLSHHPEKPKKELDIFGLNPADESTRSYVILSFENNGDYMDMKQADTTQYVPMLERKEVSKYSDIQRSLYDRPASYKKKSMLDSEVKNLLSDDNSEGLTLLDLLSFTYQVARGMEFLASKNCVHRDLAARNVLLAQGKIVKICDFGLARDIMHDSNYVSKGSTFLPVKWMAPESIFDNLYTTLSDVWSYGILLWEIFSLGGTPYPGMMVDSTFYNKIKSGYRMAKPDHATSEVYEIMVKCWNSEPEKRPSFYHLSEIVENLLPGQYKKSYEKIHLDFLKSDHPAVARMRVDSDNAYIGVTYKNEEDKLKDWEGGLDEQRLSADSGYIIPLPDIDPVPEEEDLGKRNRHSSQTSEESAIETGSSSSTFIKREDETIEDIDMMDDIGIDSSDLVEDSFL

`COc1cc2nccc(Oc3cnn(CC(=O)Nc4cccc(F)c4)c3)c2cc1C#N` [Example 1, N-(3-fluorophenyl)-2-[4-(6-cyano-7-methoxyquinolin-4-yloxy)pyrazol-1-yl]acetamide] was tested, and the IC50 (PDGFRα tyrosine kinase) was roughly 500 nM, the IC50 (PDGFRβ tyrosine kinase) was roughly 100 nM and the IC50 (KDR tyrosine kinase) was roughly 6000 nM. It also gave an IC50 (phospho-Tyr751 PDGFRβ) of roughly 2 nM.
